We go through 15 compounds from paper PMC3267017, “Design, synthesis and in vitro evaluation of novel bivalent S-adenosylmethionine analogues” (Bioorganic & Medicinal Chemistry Letters, 2012).

Counter-ions that a name gives are not always drawn. Like-named read-outs stand apart in the source and are kept apart here.

In this assay the target is MetJ dimer–DNA complex (F-metC) (Escherichia coli, UniProt P0A8U6). Description: Fluorescence anisotropy assay: MetJ titrated into F-metC DNA and ligand, MetJ dimer–DNA complex formation. In kind it is binding. The following applies: for EC50: F-metC 10 nM, average of three titrations, read-out: EC50, concentration of MetJ monomer required to promote half-maximal formation of its complex with the F-metC DNA; for Fold-improvement over monovalent control 11: unquaternised bivalent ligand 1 mM vs 11 at 2 mM; for Fold-improvement over monovalent control 4: ligands 2 mM. The source says: A fluorescence anisotropy-based binding assay was used to compare the relative ability of SAM analogues to promote MetJ dimer–DNA complex formation. Since SAM has low affinity for MetJ in the absence of DNA,[8,13] measurements were made in the presence of the DNA fragment F-metC, a fluorescently-labeled analogue of the shortest naturally occurring operator sequence, metC.[14] Titration of MetJ into a solution containing fixed concentrations of F-metC and ligand allows the change in anisotropy related to ternary complex formation to be measured (Fig. 5).
Chain of MetJ dimer–DNA complex (F-metC) (P0A8U6 2-105, one chain of several): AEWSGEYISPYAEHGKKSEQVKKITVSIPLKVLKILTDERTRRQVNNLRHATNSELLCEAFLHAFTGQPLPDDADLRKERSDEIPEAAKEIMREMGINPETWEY
Figure 5 Cartoon illustrating the fluorescence anisotropy assay. The SAM molecules promote the formation of a SAM–F-metC–protein complex, with two MetJ dimers bound to the 18 base-pair DNA duplex.
The half-maximal concentration of MetJ, EC50, required to promote complex formation was determined for each ligand. […] The monovalent ligands 11 and 12 (2 mM) and the bivalent ligands 9 and 10 (1 mM) all promoted the formation of the MetJ–DNA complex (Table 1). […] The unquaternised bivalent ligands 9a–e (1 mM) promoted complex formation up to about threefold more effectively than the corresponding monovalent analogue 11. Similarly, the quaternised bivalent ligands 10a and 10b promoted, respectively, complex formation 2.4- and 3.6-fold more effectively than the quaternised monovalent analogue 12.
Analysis of novel SAM analogues binding to MetJ in the presence of operator DNA was carried out using fluorescence anisotropy. Fluorescence anisotropy experiments were performed on a Spex Fluorolog Tau spectrofluorometer (HORIBA Jobin Yvon) controlled by Datamax software. The excitation and emission wavelengths were set to 488 nm and 517 nm respectively. Slit widths were set to 5 nm and all experiments were carried out at 19 °C. The detector integration time was 5 seconds and three readings were taken of each sample to obtain an average anisotropy. Free anisotropy values were 0.051-0.060. Increase in fluorescence anisotropy was observed upon titration of MetJ into a solution of F-metC (10 nM) with and without ligand ([…]) in TK buffer pH 7.6 (50 mM Trizma hydrochloride pH 7.6, 100 mM KCl) with a total starting volume of 200 µL. […] The final DMSO concentration was 2% or less. After each addition, the sample was mixed with a pipette and left to equilibrate for five minutes before the fluorescence anisotropy readings were acquired. The intensity of linear and perpendicular light, compared to the excitation light is measured experimentally and the anisotropy was calculated using the following equation:‖
The data was fitted to a sigmoidal growth logistic model using the following equation: […]
Where A1 refers to the initial value, A2 refers to the final value, x0 refers to the centre and p is a value relating to the slope of the transition. Errors refer the standard deviation of three titration repeats. An arbitrary weighting function with the following equation was employed: […]
A general note: Polarisation of emitted light reports the rotation of a fluorescent probe.

Where [1] appears, read: monovalent ligand 2 mM, DMSO 2%.

For the compound `CCCNC(=O)CCC[N+](C)(C)C[C@H]1O[C@@H](n2cnc3c(N)ncnc32)[C@H](O)[C@@H]1O` [Compound 5, reference compound], the EC50 (quaternised ligands 2 mM) was 150 ± 10 nM.

As for `CN(CC[C@H](N)C(=O)NCc1ccc(CNC(=O)[C@@H](N)CCN(C)C[C@H]2O[C@@H](n3cnc4c(N)ncnc43)[C@H](O)[C@@H]2O)cc1)C[C@H]1O[C@@H](n2cnc3c(N)ncnc32)[C@H](O)[C@@H]1O` [Compound 9a, N,N′-(1,4-Phenylenebismethylene)bis{(2′S)-2′-amino-4′-[5′′-deoxy-5′′-(methylamino)-adenosyl]butanamide}], the “Fold-improvement over monovalent control 11” value was 2.0-fold. Further, the EC50 (bivalent ligand 1 mM, DMSO 2%) worked out at 61 ± 3 nM.

`CN(CC[C@H](N)C(=O)NCc1cccc(CNC(=O)[C@@H](N)CCN(C)C[C@H]2O[C@@H](n3cnc4c(N)ncnc43)[C@H](O)[C@@H]2O)c1)C[C@H]1O[C@@H](n2cnc3c(N)ncnc32)[C@H](O)[C@@H]1O` [Compound 9b, N,N′-(1,3-Phenylenebismethylene)bis{(2′S)-2′-amino-4′-[5′′-deoxy-5′′-(methylamino)-adenosyl]butanamide}]: the “Fold-improvement over monovalent control 11” value is reported as 3.2-fold. In addition, under “bivalent ligand 1 mM, DMSO 2%”, the EC50 was found to be 37 ± 2 nM.

For the compound `CN(CC[C@H](N)C(=O)NCc1ccccc1-c1ccccc1CNC(=O)[C@@H](N)CCN(C)C[C@H]1O[C@@H](n2cnc3c(N)ncnc32)[C@H](O)[C@@H]1O)C[C@H]1O[C@@H](n2cnc3c(N)ncnc32)[C@H](O)[C@@H]1O` [Compound 9c, N,N′-(Biphenyl-2,2′-diylybismethylene)bis{(2′′S)-2′′-amino-4′′-[5′′′-deoxy-5′′′-(methylamino)-adenosyl]butanamide}], the “Fold-improvement over monovalent control 11” value was 3.1-fold. Moreover, where the note is “bivalent ligand 1 mM, DMSO 2%”, the EC50 turned out to be 39 ± 1 nM.

In the case of `CN(CC[C@H](N)C(=O)NCc1cccc(-c2cccc(CNC(=O)[C@@H](N)CCN(C)C[C@H]3O[C@@H](n4cnc5c(N)ncnc54)[C@H](O)[C@@H]3O)c2)c1)C[C@H]1O[C@@H](n2cnc3c(N)ncnc32)[C@H](O)[C@@H]1O` [Compound 9d, N,N′-(Biphenyl-3,3′-diylybismethylene)bis{(2′′S)-2′′-amino-4′′-[5′′′-deoxy-5′′′-(methylamino)-adenosyl]butanamide}], the “Fold-improvement over monovalent control 11” value is reported as 1.6-fold. Also, the EC50 (bivalent ligand 1 mM, DMSO 2%) is 75 ± 4 nM.

`CN(CC[C@H](N)C(=O)NCC#CC#CCNC(=O)[C@@H](N)CCN(C)C[C@H]1O[C@@H](n2cnc3c(N)ncnc32)[C@H](O)[C@@H]1O)C[C@H]1O[C@@H](n2cnc3c(N)ncnc32)[C@H](O)[C@@H]1O` [Compound 9e, N,N′-(Hexa-2,4-diyne-1,6-diyl)bis{(2′S)-2′-amino-4′-[5′′-deoxy-5′′-(methylamino)-adenosyl]butanamide}]: the “Fold-improvement over monovalent control 11” value is given as 1.1-fold. The EC50 (bivalent ligand 1 mM, DMSO 2%) turned out to be 111 ± 5 nM.

On to `C[N+](C)(CC[C@H](N)C(=O)NCc1ccc(CNC(=O)[C@@H](N)CC[N+](C)(C)C[C@H]2O[C@@H](n3cnc4c(N)ncnc43)[C@H](O)[C@@H]2O)cc1)C[C@H]1O[C@@H](n2cnc3c(N)ncnc32)[C@H](O)[C@@H]1O` [Compound 10a, N,N′-(1,4-Phenylenebismethylene)bis{(2′S)-2′-amino-4′-[5′′-deoxy-5′′-(dimethylamino)-adenosyl]butanamide}iodide tetratrifluoroacetic acid salt], for which the EC50 (bivalent ligand 1 mM, DMSO 2%) is 15 ± 5 nM.

Regarding `C[N+](C)(CC[C@H](N)C(=O)NCc1cccc(CNC(=O)[C@@H](N)CC[N+](C)(C)C[C@H]2O[C@@H](n3cnc4c(N)ncnc43)[C@H](O)[C@@H]2O)c1)C[C@H]1O[C@@H](n2cnc3c(N)ncnc32)[C@H](O)[C@@H]1O` [Compound 10b, N,N′-(1,3-Phenylenebismethylene)bis{(2′S)-2′-amino-4′-[5′′-deoxy-5′′-(dimethylamino)-adenosyl]butanamide}iodide tetratrifluoroacetic acid salt], for the setting “bivalent ligand 1 mM, DMSO 2%”, the EC50 came to 10 ± 1 nM.

For the compound `CN(CC[C@H](N)C(=O)NCc1ccccc1)C[C@H]1O[C@@H](n2cnc3c(N)ncnc32)[C@H](O)[C@@H]1O` [Compound 11, 5′-[{(3′′S)-4′′-Benzylamino-3′′-amino-4′′-oxobutyl}methylamino]-5′-deoxyadenosine], the EC50 under setting [1] was found to be 120 ± 10 nM.

In the case of `C[N+](C)(CC[C@H](N)C(=O)NCc1ccccc1)C[C@H]1O[C@@H](n2cnc3c(N)ncnc32)[C@H](O)[C@@H]1O` [Compound 12, 5′-[{(3′′S)-4′′-Benzylamino-3′′-amino-4′′-oxobutyl}dimethylamino]-5′-deoxyadenosine iodide ditrifluoroacetic acid salt], the EC50 under setting [1] was found to be 36 ± 6 nM.

On to `CN(CCCC(=O)NCCCCn1nnc2c1CCCCCC2OCCNC(=O)CCCN(C)C[C@H]1O[C@@H](n2cnc3c(N)ncnc32)[C@H](O)[C@@H]1O)C[C@H]1O[C@@H](n2cnc3c(N)ncnc32)[C@H](O)[C@@H]1O` (stereo partly drawn) [Compound 15b, 4-((Adenosyl)(methyl)amino)-N-(2-(1-(4-(4-((adenosyl) (methyl)amino)butanamido)butyl)-4,5,6,7,8,9-hexahydro-1H-cycloocta[d][1,2,3]triazol-4-yloxy)ethyl)butanamide and 4-(-((adenosyl)(methyl)amino)-N-(2-(1-(4-(4-(-((adenosyl)(methyl)amino)butanamido)butyl)-4,5,6,7,8,9-hexahydro-1H-cycloocta[d][1,2,3]triazol-9-yloxy)ethyl)butanamide], for which the EC50 (unquaternised ligands 2 mM) was determined as 76 ± 2 nM.

In the case of `C[N+](C)(CCCC(=O)NCCCCn1nnc2c1CCCCCC2OCCNC(=O)CCC[N+](C)(C)C[C@H]1O[C@@H](n2cnc3c(N)ncnc32)[C@H](O)[C@@H]1O)C[C@H]1O[C@@H](n2cnc3c(N)ncnc32)[C@H](O)[C@@H]1O.[I-].[I-]` (stereo partly drawn) [Compound 16b, 4-((Adenosyl)(dimethyl)amino)-N-(2-(1-(4-(4-((adenosyl) (dimethyl)amino)butanamido)butyl)-4,5,6,7,8,9-hexahydro-1H-cycloocta[d][1,2,3]triazol-4-yloxy)ethyl)butanamide diiodide and 4-(-((adenosyl)(dimethyl)amino)-N-(2-(1-(4-(4-(-((adenosyl)(dimethyl)amino)butanamido)butyl)-4,5,6,7,8,9-hexahydro-1H-cycloocta[d][1,2,3]triazol-9-yloxy)ethyl)butanamidediiodide], for the setting “quaternised ligands 2 mM”, the “Fold-improvement over monovalent control 5” value is on record as 3.6-fold and the EC50 came to 42 ± 3 nM.

With `CN(CCCC(=O)NCCNC(=O)CCCN(C)C[C@H]1O[C@@H](n2cnc3c(N)ncnc32)[C@H](O)[C@@H]1O)C[C@H]1O[C@@H](n2cnc3c(N)ncnc32)[C@H](O)[C@@H]1O` [Compound 18a, N,N′-Di-[5′-deoxy-5′-N-methyl-N′-(4-butyryl)-adenosine]-1,2-ethylenediamine], the “Fold-improvement over monovalent control 4” value is recorded as 1.4-fold. Besides, the EC50 (unquaternised ligands 2 mM) was 700 ± 50 nM.

With `CN(CCCC(=O)NCCCNC(=O)CCCN(C)C[C@H]1O[C@@H](n2cnc3c(N)ncnc32)[C@H](O)[C@@H]1O)C[C@H]1O[C@@H](n2cnc3c(N)ncnc32)[C@H](O)[C@@H]1O` [Compound 18b, N,N′-Di-[5′-deoxy-5′-N-methyl-N′-(4-butyryl)]-1,3-diaminopropane], the “Fold-improvement over monovalent control 4” value is 3.1-fold. For the setting “unquaternised ligands 2 mM”, the EC50 was 320 ± 40 nM.

Regarding `CN(CCCC(=O)NCCCCNC(=O)CCCN(C)C[C@H]1O[C@@H](n2cnc3c(N)ncnc32)[C@H](O)[C@@H]1O)C[C@H]1O[C@@H](n2cnc3c(N)ncnc32)[C@H](O)[C@@H]1O` [Compound 18c, N,N′-Di-[5′-deoxy-5′-N-methyl-N′-(4-butyryl)-adenosine]-1,4-diaminobutane], the “Fold-improvement over monovalent control 4” value is reported as 4.5-fold. In addition, the EC50 (unquaternised ligands 2 mM) was 220 ± 20 nM.
